Bounds are passed on as bounds.

One experiment relates to kynurenine production in IFN-γ-treated KATO-III cells. In words: Inhibitory activity on kynurenine production (Test Example 1). The format is cell-based. The conditions noted are these: Homo sapiens, IFN-γ treatment, culture for 96 hours, read-out: IC50 value, inhibition of kynurenine production. The method, boiled down:
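Read-out is absorbance at 480 nm of medium treated with trichloroacetic acid, then p-dimethylaminobenzaldehyde, to quantify kynurenine. DMSO-only wells with and without IFN-γ serve as references. Cells were KATO-III, 2,000 per well, 96 h at 37 °C/5% CO2 with compound (DMSO ≤0.1%) and IFN-γ at 31.25 ng/mL in the added suspension.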
For `O=S(=O)(Nc1nc2ccccc2nc1OC(c1cccnc1)C(F)(F)F)c1cccc(Cl)c1Cl` (centres unmarked) [Compound 20, 2,3-dichloro-N-{3-[2,2,2-trifluoro-1-(pyridin-3-yl)ethoxy]-quinoxalin-2-yl}benzenesulfonamide], the IC50 was under 1000 nM.

Consider `O=S(=O)(Nc1nc2ccccc2nc1OCc1ccc2ccccc2c1)c1cccc2ccccc12` [Compound 11, N-{3-[(2-naphthyl)methoxy]quinoxalin-2-yl}-1-naphthalenesulfonamide], for which the IC50 was under 1000 nM. Same read-out and setting: the same measure for `O=S(=O)(Nc1nc2ccccc2nc1OCc1cccc(C(F)(F)F)c1)c1cccc(Cl)c1Cl` [Compound 18, 2,3-dichloro-N-{3-[(3-trifluoromethylphenyl)methoxy]-quinoxalin-2-yl}benzenesulfonamide]: under 1000 nM; for `O=S(=O)(Nc1nc2ccccc2nc1OC(c1cccs1)C(F)(F)F)c1cccc(Cl)c1Cl` (centres unmarked) [Compound 100, 2,3-dichloro-N-{3-[2,2,2-trifluoro-1-(thiophen-2-yl)-ethoxy]quinoxalin-2-yl}benzenesulfonamide]: under 1000 nM; for `CCCNS(=O)(=O)Nc1nc2ccccc2nc1OC(c1ccc(C)nc1)C(F)(F)F` (centres unmarked) [Compound 280, N-{3-[2,2,2-trifluoro-1-(6-methylpyridin-3-yl)ethoxy]-quinoxalin-2-yl}-N′-propyl-sulfuric diamide]: under 1000 nM.

Turning to `CC(C)(C(Oc1nc2ccccc2nc1NS(=O)(=O)c1ccccc1Cl)c1cccnc1)S(C)(=O)=O` (centres unmarked) [Compound 80, 2-chloro-N-{3-[2-methanesulfonyl-2-methyl-1-(pyridin-3-yl)-propoxy]quinoxalin-2-yl}benzenesulfonamide], the concentration for half-maximal inhibition (IC50) is under 1000 nM. The same measure, in the same setting: the same measure for `Cn1cncc1C(Oc1nc2ccccc2nc1NS(=O)(=O)c1cccc(Cl)c1Cl)C(F)(F)F` (centres unmarked) [Compound 97, 2,3-dichloro-N-{3-[2,2,2-trifluoro-1-(1-methyl-1H-imidazol-5-yl)ethoxy]quinoxalin-2-yl}benzenesulfonamide]: under 1000 nM; for `CCCS(=O)(=O)Nc1nc2ccccc2nc1OC(c1cncc(F)c1)C(F)(F)F` (centres unmarked) [Compound 332, N-{3-[2,2,2-trifluoro-1-(5-fluoropyridin-3-yl)ethoxy]-quinoxalin-2-yl}propane-1-sulfonamide]: under 1000 nM; for `O=S(=O)(Nc1nc2ccccc2nc1OCc1ccc2ncccc2c1)c1cccc(Cl)c1Cl` [Compound 24, 2,3-dichloro-N-{3-[(quinolin-6-yl)methoxy]quinoxalin-2-yl}-benzenesulfonamide]: under 1000 nM.

As to `O=S(=O)(Nc1nc2ccccc2nc1OC(c1ccc(Cl)nc1)C(F)(F)F)c1ccccc1Cl` (centres unmarked) [Compound 85, 2-chloro-N-{3-[2,2,2-trifluoro-1-(6-chloropyridin-3-yl)-ethoxy]quinoxalin-2-yl}benzenesulfonamide], the IC50 was under 1000 nM. Take `O=S(=O)(Nc1nc2ccccc2nc1OC(c1cncs1)C(F)(F)F)c1cccc(Cl)c1Cl` (centres unmarked) [Compound 98, 2,3-dichloro-N-{3-[2,2,2-trifluoro-1-(thiazol-5-yl)ethoxy]-quinoxalin-2-yl}benzenesulfonamide]: the half-maximal inhibitory concentration (IC50) was under 1000 nM. For the compound `O=S(=O)(Nc1nc2ccccc2nc1OCCCc1cccnc1)c1cccc(Cl)c1Cl` [Compound 159, 2,3-dichloro-N-{3-[3-(pyridin-3-yl)propoxy]quinoxalin-2-yl}benzenesulfonamide], the 50% inhibitory concentration (IC50) is under 1000 nM. In the case of `O=S(=O)(Nc1nc2ccccc2nc1OC(c1ccc(C(F)(F)F)cc1)C(F)(F)F)c1ccccc1C(F)(F)F` (centres unmarked) [Compound 35, 2-(trifluoromethyl)-N-{3-[2,2,2-trifluoro-1-(4-trifluoromethylphenyl)ethoxy]quinoxalin-2-yl}benzenesulfonamide], the IC50 is under 1000 nM. With `O=S(=O)(Nc1nc2ccccc2nc1OC(c1ccc(N2CCCC2)nc1)C(F)(F)F)c1ccccc1Cl` (centres unmarked) [Compound 93, 2-chloro-N-{3-{2,2,2-trifluoro-1-[6-(pyrrolidin-1-yl)-pyridin-3-yl]ethoxy}quinoxalin-2-yl}benzenesulfonamide], the IC50 was under 1000 nM.

As to `CCC1(COc2nc3ccccc3nc2NS(=O)(=O)c2ccccc2Cl)CCOCC1` [Compound 245, 2-chloro-N-{3-[(4-ethyltetrahydro-2H-pyran-4-yl)methoxy]-quinoxalin-2-yl}benzenesulfonamide], the IC50 was under 1000 nM. With `CCC(Oc1nc2ccccc2nc1NS(=O)(=O)c1cccc(Cl)c1Cl)c1cccnc1` (centres unmarked) [Compound 31, 2,3-dichloro-N-{3-[1-(pyridin-3-yl)propoxy]quinoxalin-2-yl}benzenesulfonamide], the IC50 is under 1000 nM.

`O=S(=O)(Nc1nc2ccccc2nc1OC(c1ccncc1)C(F)(F)F)c1ccccc1Cl` (centres unmarked) [Compound 49, 2-chloro-N-{3-[2,2,2-trifluoro-1-(pyridin-4-yl)ethoxy]quinoxalin-2-yl}benzenesulfonamide]: the IC50 was under 1000 nM. For the compound `Cn1c(C(Oc2nc3ccccc3nc2NS(=O)(=O)c2cccc(Cl)c2Cl)C(F)(F)F)cc2ccccc21` (centres unmarked) [Compound 103, 2,3-dichloro-N-{3-[2,2,2-trifluoro-1-(1-methyl-1H-indol-2-yl)ethoxy]quinoxalin-2-yl}benzenesulfonamide], the IC50 is under 1000 nM.

For the compound `O=S(=O)(Nc1nc2ccccc2nc1OC(c1ccccc1)C(F)(F)F)c1ccccc1Cl` (centres unmarked) [Compound 44, 2-chloro-N-[3-(2,2,2-trifluoro-1-phenylethoxy)quinoxalin-2-yl]benzenesulfonamide], the IC50 is under 1000 nM. On the same count and under the same terms, the same measure for `O=S(=O)(CC1CC1)Nc1nc2ccccc2nc1O[C@H](c1cccnc1)C(F)(F)F` [Compound 307, (R)-1-cyclopropyl-N-{3-[2,2,2-trifluoro-1-(pyridin-3-yl)-ethoxy]quinoxalin-2-yl}methanesulfonamide]: under 1000 nM.

Take `COc1ccccc1S(=O)(=O)Nc1nc2ccccc2nc1OC(c1cccnc1)C(F)(F)F` (centres unmarked) [Compound 158, 2-methoxy-N-{3-[2,2,2-trifluoro-1-(pyridin-3-yl)ethoxy]-quinoxalin-2-yl}benzenesulfonamide]: the IC50 was under 1000 nM. As for `CC(C)(C)OC(=O)NCCc1ccc(S(=O)(=O)Nc2nc3ccccc3nc2OC(c2cccnc2)C(F)(F)F)cc1` (centres unmarked) [Compound 208, tert-butyl 4-(N-{3-[2,2,2-trifluoro-1-(pyridin-3-yl)ethoxy]quinoxalin-2-yl}sulfamoyl)phenethylcarbamate], the IC50 was under 1000 nM.

On to `O=S(=O)(Nc1nc2ccccc2nc1OC(c1cccnc1)C(F)(F)F)c1cc(F)cc(F)c1` (centres unmarked) [Compound 153, 3,5-difluoro-N-{3-[2,2,2-trifluoro-1-(pyridin-3-yl)ethoxy]-quinoxalin-2-yl}benzenesulfonamide], for which the IC50 is under 1000 nM. `O=S(=O)(Nc1nc2ccccc2nc1OC(c1cccnc1)C(F)(F)F)c1ccccc1Cl` (centres unmarked) [Compound 138, 2-Chloro-N-{3-[2,2,2-trifluoro-1-(pyridin-3-yl)ethoxy]-quinoxalin-2-yl}benzenesulfonamide]: the 50% inhibitory concentration (IC50) was under 1000 nM. On the same count and under the same terms, the same measure for `O=S(=O)(Nc1nc2ccccc2nc1OCc1ccc2ccccc2c1)c1c(Cl)cccc1Cl` [Compound 27, 2,6-dichloro-N-{3-[(2-naphthyl)methoxy]quinoxalin-2-yl}-benzenesulfonamide]: under 1000 nM; for `O=S(=O)(Nc1nc2ccccc2nc1SCc1ccccc1)c1ccccc1Cl` [Compound 221, N-[3-(benzylthio)quinoxalin-2-yl]-2-chlorobenzenesulfonamide]: 1000 to 10000 nM. On the same count and under the same terms, the same measure for `Cc1nn(C)c(Cl)c1S(=O)(=O)Nc1nc2ccccc2nc1OC(c1ccc(CN(C)C)cc1)C(F)(F)F` (centres unmarked) [Compound 203, 5-chloro-N-{3-[1-(4-((dimethylamino)methyl)phenyl)-2,2,2-trifluoroethoxy]quinoxalin-2-yl}-1,3-dimethyl-1H-pyrazole-4-sulfonamide]: under 1000 nM. Consider `O=S(=O)(Nc1nc2ccccc2nc1OC(c1ccc(F)cc1)C(F)(F)F)c1ccccc1Cl` (centres unmarked) [Compound 59, 2-chloro-N-{3-[2,2,2-trifluoro-1-(4-fluorophenyl)ethoxy]-quinoxalin-2-yl}benzenesulfonamide], for which the IC50 is under 1000 nM. Same read-out and setting: the same measure for `Cc1nn(C)c(Cl)c1S(=O)(=O)Nc1nc2ccccc2nc1OC(c1ccc(C#N)cc1)C(F)(F)F` (centres unmarked) [Compound 200, 5-chloro-N-{3-[1-(4-cyanophenyl)-2,2,2-trifluoroethoxy]-quinoxalin-2-yl}-1,3-dimethyl-1H-pyrazole-4-sulfonamide]: under 1000 nM.

Another experiment deals with 4T1 mouse breast cancer cells. In words: Antitumor effect in mice transplanted with 4T1 cells (Test Example 2). The format is in vivo, BALB/c mice. The conditions noted are these: Day 4; dose 10 mg/kg, oral, once or twice daily. The method, then:
5-week-old BALB/c mice (male, supplied from CLEA Japan, Inc.) were purchased. After quarantine and stabilization, mice which favorably gained their weight and had no apparent abnormalities were used in the test. The test started from 6 weeks of age. The mice were housed in groups of 6 mice per plastic cage with free access to commercial solid feed and water in a breeding room in which the room temperature was 19° C. to 25° C., the humidity was 30 to 70% and the light was kept on for 12 hours a day (7:00 a.m. to 7:00 p.m.).
The abdominal hair of the BALB/c mice was shaved on the day before the test. Transplantation was performed by subcutaneous injection of a suspension containing 1×10^6 4T1 mouse breast cancer cells in 100 μL of phosphate buffered saline (PBS) from the shaved region of each mouse.
When the tumor volume reached 30 to 80 mm^3, the mice were divided into groups so that the average tumor volume of each group was equal. The test compound was suspended in 0.5% (w/v) methylcellulose 400 cP (manufactured by Wako Pure Chemical Industries, Ltd.), and the suspension was orally administered to each mouse of the corresponding group once or twice daily. The tumor volume was calculated using the formula (a×b^2)/2 (a: tumor major axis, b: tumor minor axis). The tumor volume (V) was measured twice or three times a week, and the tumor growth rate (V/V0) was calculated by division of the tumor volume (V) by the tumor volume on the day of the first administration (V0). The T/C (treatment group/control group) value was calculated by division of the V/V0 value of the test compound treatment group by the V/V0 value of the control group, based on which the antitumor effect was evaluated.
Statistical analysis was performed on the tumor volumes of the control group and the treatment group, using student's T-test. If the p value was <0.05, we considered the difference significant.
Turning to `O=S(=O)(Nc1nc2ccccc2nc1OC(c1cccnc1)C(F)(F)F)c1cccc(Cl)c1Cl` (centres unmarked) [Compound 20, 2,3-dichloro-N-{3-[2,2,2-trifluoro-1-(pyridin-3-yl)ethoxy]-quinoxalin-2-yl}benzenesulfonamide], the T/C is 0.68.

Staying with this experiment, now noted: Day 4 and Day 7 after administration.
In the case of `O=S(=O)(Nc1nc2ccccc2nc1OC(c1cccnc1)C(F)(F)F)c1cccc(Cl)c1Cl` (centres unmarked) [Compound 20, 2,3-dichloro-N-{3-[2,2,2-trifluoro-1-(pyridin-3-yl)ethoxy]-quinoxalin-2-yl}benzenesulfonamide], the “tumor growth inhibition (in words)” value is given as “significantly inhibited tumor growth”.

Still in this experiment, the particulars now being: Day 7; dose 10 mg/kg, oral, once or twice daily.
For the compound `O=S(=O)(Nc1nc2ccccc2nc1OC(c1cccnc1)C(F)(F)F)c1cccc(Cl)c1Cl` (centres unmarked) [Compound 20, 2,3-dichloro-N-{3-[2,2,2-trifluoro-1-(pyridin-3-yl)ethoxy]-quinoxalin-2-yl}benzenesulfonamide], the T/C came to 0.69.

For the origin of these results see patent US8673908B2, “Kynurenine production inhibitor” (Kyowa Hakko Kirin Co., Ltd., priority 2008, dated 2014).
